{
  "source": "ChEMBL document CHEMBL1201862",
  "about": "“PubChem BioAssay data set” (2004)",
  "key": {"[1]": {"biological_target": "T1, DNA repair and recombination protein RAD54-like (Homo sapiens, UniProt Q92698)", "T1 sequence (Q92698 whole entry)": "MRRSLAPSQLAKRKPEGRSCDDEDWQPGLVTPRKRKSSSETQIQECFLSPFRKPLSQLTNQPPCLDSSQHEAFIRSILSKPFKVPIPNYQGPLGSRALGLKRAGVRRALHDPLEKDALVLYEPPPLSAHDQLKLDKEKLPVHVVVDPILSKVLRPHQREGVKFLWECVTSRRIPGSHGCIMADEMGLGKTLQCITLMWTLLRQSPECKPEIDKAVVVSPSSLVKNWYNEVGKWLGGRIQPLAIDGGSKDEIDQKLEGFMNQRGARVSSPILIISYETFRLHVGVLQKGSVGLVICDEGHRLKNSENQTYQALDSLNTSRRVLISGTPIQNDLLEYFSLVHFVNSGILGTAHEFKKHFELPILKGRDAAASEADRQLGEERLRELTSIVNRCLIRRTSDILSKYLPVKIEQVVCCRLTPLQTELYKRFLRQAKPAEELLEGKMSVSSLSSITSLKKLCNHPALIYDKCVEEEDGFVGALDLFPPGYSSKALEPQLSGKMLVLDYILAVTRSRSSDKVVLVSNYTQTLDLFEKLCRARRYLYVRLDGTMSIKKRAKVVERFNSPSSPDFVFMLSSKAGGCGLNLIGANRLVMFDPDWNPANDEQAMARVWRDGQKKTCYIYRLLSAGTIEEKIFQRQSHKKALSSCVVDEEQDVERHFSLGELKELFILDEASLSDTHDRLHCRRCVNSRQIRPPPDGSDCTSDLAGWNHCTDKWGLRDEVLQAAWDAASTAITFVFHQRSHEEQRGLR", "assay": "RAD54 Holliday junction migration blockers – biochemical, fluorescence, cherry-picked samples, dose series, confirmation (AID 651657)", "type": "functional"}, "Bcl-2-like protein 10": {"biological_target": "Bcl-2-like protein 10 (Homo sapiens, UniProt Q9HD36)", "sequence (Q9HD36 whole entry)": "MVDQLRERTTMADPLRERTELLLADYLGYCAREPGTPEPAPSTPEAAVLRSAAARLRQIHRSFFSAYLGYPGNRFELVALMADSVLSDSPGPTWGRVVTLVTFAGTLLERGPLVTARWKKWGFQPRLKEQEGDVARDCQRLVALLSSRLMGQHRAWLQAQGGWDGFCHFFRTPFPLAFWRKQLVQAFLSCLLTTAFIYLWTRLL", "assay": "Bcl-B/TR3 peptide binding disruption – biochemical, fluorescence polarization, FITC-TR3 peptide, selectivity assay for Bfl-1 inhibitor project, primary screen (AID 748);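 also: fluorescence polarization from a fluorescein-labelled TR3 peptide binding purified Bcl-B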"}, "MDA-MB-435": {"test_system": "MDA-MB-435", "assay": "cells", "type": "functional, cell-based", "details": "Homo sapiens"}, "cells": {"assay": "cells", "type": "functional, cell-based", "details": "PPC-1"}, "[2]": {"biological_target": "T2, Dual specificity protein phosphatase 3 (Homo sapiens, UniProt P51452)", "T2 sequence (P51452 whole entry)": "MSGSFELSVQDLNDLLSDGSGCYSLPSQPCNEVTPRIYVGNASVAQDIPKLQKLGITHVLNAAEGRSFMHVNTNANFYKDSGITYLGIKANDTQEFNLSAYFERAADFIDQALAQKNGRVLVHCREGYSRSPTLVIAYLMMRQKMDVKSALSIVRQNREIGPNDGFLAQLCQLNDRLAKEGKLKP", "assay": "SAR VHR1 Fluorescent Assay for In Vitro dose response studies. [Related pubchem assays (depositor defined):AID1654, AID1661, AID1878, AID1992, AID2004, AID2070, AID2085]", "type": "functional"}, "[3]": {"biological_target": "T2, Dual specificity protein phosphatase 3", "assay": "MOA VHR1 Fluorescent secondary assay for identification of redox-state modulating compounds. [Related pubchem assays (depositor defined):AID1654, AID1661, AID1878, AID1957]"}, "[4]": {"biological_target": "T2, Dual specificity protein phosphatase 3", "assay": "SAR VHR1 absorbance Assay for In Vitro dose response studies. [Related pubchem assays (depositor defined):AID1654, AID1661, AID1878, AID1992, AID2004]"}, "[5]": {"biological_target": "T3, Tyrosine-protein phosphatase non-receptor type 22 (Homo sapiens, UniProt Q9Y2R2)", "T3 sequence (Q9Y2R2 whole entry)": "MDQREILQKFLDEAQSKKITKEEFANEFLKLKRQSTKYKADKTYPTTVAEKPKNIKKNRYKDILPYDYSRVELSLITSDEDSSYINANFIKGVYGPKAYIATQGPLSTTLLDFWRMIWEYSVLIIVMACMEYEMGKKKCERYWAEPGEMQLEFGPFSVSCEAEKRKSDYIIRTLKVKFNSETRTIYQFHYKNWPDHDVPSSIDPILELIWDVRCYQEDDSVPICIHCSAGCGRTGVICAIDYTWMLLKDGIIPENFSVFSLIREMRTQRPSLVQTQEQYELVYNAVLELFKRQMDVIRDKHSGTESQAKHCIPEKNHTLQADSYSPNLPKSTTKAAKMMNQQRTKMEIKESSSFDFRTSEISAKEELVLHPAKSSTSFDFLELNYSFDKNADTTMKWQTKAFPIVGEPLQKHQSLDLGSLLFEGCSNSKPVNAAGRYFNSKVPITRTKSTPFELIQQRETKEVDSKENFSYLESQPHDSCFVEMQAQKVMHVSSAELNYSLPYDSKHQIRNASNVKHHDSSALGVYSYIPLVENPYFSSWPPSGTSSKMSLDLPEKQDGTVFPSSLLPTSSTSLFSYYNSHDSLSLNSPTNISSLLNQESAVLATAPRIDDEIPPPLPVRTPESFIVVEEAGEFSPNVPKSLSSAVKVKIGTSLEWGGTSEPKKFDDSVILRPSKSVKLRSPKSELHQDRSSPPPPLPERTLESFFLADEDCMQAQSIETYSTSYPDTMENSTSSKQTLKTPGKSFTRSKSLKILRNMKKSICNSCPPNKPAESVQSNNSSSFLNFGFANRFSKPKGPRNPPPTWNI", "assay": "SAR LYP1 Fluorescent Assay using OMFP substrate for In Vitro dose response studies - Set 3. [Related pubchem assays (depositor defined):AID1779, AID1784, AID2140, AID2686]", "type": "functional"}, "[6]": {"biological_target": "DNA (cytosine-5)-methyltransferase 1 (Homo sapiens, UniProt P26358)", "sequence (P26358 whole entry)": "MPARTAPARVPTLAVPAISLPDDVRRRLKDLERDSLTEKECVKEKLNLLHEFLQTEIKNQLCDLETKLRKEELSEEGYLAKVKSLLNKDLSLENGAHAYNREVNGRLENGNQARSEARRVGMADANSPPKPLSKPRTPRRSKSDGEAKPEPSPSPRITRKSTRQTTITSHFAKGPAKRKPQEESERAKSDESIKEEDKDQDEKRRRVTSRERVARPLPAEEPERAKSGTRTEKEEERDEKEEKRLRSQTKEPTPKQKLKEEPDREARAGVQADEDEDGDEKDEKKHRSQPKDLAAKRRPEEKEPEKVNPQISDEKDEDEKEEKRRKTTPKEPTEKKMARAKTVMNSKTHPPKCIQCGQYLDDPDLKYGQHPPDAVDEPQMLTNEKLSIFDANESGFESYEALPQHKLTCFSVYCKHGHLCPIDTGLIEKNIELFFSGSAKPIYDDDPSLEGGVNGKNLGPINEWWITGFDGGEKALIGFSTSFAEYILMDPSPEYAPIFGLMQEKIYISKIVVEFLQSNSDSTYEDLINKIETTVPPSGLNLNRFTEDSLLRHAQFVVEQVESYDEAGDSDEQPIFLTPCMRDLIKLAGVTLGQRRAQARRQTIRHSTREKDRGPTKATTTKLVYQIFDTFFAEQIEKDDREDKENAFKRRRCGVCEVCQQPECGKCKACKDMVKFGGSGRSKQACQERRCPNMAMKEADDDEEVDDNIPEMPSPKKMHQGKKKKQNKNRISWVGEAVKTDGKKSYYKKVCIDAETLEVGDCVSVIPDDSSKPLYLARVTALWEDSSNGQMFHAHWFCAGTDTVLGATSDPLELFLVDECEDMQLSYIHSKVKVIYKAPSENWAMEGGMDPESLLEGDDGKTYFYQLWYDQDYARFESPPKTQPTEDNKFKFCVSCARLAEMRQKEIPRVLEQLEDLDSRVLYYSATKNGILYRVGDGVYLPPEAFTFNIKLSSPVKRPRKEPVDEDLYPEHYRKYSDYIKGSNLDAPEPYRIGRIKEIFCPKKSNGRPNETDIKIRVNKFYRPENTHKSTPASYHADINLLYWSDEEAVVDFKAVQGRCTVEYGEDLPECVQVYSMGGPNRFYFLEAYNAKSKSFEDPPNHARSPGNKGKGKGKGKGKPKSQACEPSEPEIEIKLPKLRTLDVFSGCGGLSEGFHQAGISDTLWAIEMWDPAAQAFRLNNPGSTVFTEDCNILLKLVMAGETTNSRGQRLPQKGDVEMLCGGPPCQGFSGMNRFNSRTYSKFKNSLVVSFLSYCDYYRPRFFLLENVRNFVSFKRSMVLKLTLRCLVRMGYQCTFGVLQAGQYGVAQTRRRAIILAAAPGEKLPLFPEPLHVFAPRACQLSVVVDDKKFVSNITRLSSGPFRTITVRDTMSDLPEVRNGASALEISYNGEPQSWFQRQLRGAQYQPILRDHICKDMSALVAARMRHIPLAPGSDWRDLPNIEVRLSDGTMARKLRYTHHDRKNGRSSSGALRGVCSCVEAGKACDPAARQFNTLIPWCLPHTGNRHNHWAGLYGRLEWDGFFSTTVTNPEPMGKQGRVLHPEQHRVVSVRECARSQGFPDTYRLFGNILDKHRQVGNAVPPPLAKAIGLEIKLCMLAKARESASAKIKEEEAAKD", "assay": "inhibition of DNA methylation by DNMT1 – biochemical, fluorescent molecular beacon, confirmation (AID 602386)", "type": "functional"}, "[7]": {"biological_target": "Tyrosine-protein phosphatase non-receptor type 12 (Homo sapiens, UniProt Q05209)", "sequence (Q05209 whole entry)": "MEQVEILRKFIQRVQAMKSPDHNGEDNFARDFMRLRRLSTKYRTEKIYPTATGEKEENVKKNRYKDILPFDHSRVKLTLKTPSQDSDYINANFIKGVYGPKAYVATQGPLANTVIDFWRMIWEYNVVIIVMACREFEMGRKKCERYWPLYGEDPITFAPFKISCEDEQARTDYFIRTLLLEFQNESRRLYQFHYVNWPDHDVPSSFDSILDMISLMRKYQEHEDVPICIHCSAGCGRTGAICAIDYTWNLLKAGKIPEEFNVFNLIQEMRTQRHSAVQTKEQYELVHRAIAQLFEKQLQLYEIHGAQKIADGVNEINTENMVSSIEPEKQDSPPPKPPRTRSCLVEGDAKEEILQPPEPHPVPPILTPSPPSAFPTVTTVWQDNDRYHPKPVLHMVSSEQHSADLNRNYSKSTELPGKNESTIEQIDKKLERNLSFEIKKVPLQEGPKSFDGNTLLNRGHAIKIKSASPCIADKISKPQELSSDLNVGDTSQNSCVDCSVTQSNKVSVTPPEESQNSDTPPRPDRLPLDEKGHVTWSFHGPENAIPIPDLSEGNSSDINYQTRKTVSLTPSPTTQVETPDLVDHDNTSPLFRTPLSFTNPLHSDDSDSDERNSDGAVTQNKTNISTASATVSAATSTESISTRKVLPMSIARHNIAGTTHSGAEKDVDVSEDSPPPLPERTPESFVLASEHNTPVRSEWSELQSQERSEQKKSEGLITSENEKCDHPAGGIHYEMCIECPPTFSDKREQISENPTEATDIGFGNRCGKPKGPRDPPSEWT", "assay": "SAR Selectivity Analysis of small molecule inhibitors of PEST using pCAP in a fluorescence assay. [Related pubchem assays (depositor defined):AID1779, AID1784, AID2135]", "type": "functional"}, "[8]": {"biological_target": "T3, Tyrosine-protein phosphatase non-receptor type 22", "assay": "inhibition of lymphoid tyrosine phosphatase LYP – biochemical, pCAP fluorogenic substrate, fluorescence, set 3, SAR follow-up (AID 449727)", "type": "functional"}, "[9]": {"biological_target": "T4, Tyrosine-protein phosphatase non-receptor type 7 (Homo sapiens, UniProt P35236)", "T4 sequence (P35236 whole entry)": "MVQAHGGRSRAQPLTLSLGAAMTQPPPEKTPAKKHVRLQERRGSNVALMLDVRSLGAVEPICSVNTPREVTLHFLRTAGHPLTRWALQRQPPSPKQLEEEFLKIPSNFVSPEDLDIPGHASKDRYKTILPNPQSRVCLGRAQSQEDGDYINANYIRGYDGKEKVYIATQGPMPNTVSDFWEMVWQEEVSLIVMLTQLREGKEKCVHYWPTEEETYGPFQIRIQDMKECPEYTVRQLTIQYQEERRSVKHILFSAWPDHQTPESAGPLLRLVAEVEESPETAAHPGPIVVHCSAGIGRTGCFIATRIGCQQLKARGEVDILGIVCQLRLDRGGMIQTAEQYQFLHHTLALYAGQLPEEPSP", "assay": "inhibition of hematopoietic tyrosine phosphatase HePTP – biochemical, set 2, SAR follow-up (AID 449736)", "type": "functional"}, "[10]": {"biological_target": "T4, Tyrosine-protein phosphatase non-receptor type 7", "assay": "redox-active compounds inhibiting HePTP phosphatase – biochemical, fluorescence, mechanism study (AID 2068)", "type": "functional"}, "[11]": {"biological_target": "T5, Dual specificity protein phosphatase 6 (Rattus norvegicus, UniProt Q64346)", "T5 sequence (Q64346 whole entry)": "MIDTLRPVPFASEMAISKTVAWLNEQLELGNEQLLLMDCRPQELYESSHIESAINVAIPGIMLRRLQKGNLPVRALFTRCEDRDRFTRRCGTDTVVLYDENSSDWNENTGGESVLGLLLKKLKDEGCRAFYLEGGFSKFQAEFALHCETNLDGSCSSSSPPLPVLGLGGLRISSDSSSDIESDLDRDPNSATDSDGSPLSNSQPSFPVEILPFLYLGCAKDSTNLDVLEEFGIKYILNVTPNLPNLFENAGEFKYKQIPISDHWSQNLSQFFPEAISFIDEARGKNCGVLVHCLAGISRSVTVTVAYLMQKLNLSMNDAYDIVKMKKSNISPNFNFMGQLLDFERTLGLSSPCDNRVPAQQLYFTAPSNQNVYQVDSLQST", "type": "functional"}, "[12]": {"biological_target": "T6, Low molecular weight phosphotyrosine protein phosphatase (Homo sapiens, UniProt P24666)", "T6 sequence (P24666 whole entry)": "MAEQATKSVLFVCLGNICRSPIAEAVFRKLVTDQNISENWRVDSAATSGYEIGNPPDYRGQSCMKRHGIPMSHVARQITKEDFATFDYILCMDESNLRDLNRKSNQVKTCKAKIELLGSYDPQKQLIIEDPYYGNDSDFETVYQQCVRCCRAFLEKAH", "type": "functional", "details": "read-out: IC50_Mean"}, "Neutrophil collagenase": {"biological_target": "Neutrophil collagenase (Homo sapiens, UniProt P22894)", "sequence (P22894 whole entry)": "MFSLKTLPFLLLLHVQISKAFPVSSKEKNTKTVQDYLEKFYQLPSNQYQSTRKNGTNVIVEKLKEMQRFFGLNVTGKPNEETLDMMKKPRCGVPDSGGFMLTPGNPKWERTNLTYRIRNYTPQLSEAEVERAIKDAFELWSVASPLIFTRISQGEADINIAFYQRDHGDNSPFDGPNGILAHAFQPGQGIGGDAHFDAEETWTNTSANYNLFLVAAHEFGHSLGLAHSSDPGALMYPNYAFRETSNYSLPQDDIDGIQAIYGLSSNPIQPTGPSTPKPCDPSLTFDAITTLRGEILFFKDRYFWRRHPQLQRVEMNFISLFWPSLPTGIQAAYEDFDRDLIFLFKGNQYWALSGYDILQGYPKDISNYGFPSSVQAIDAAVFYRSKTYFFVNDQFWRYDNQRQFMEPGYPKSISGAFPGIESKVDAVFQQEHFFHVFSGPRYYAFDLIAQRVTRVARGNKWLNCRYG", "assay": "potency against MMP13, MMP2, MMP3, MMP14 – biochemical, probe development, late stage results, selectivity assay for MMP13 inhibitor project, late-stage follow-up, panel member MMP-8 [IC50 Assay] (AID 2067)"}, "[13]": {"biological_target": "Scavenger receptor class B member 1 (Mus musculus, UniProt Q61009)", "sequence (Q61009 whole entry)": "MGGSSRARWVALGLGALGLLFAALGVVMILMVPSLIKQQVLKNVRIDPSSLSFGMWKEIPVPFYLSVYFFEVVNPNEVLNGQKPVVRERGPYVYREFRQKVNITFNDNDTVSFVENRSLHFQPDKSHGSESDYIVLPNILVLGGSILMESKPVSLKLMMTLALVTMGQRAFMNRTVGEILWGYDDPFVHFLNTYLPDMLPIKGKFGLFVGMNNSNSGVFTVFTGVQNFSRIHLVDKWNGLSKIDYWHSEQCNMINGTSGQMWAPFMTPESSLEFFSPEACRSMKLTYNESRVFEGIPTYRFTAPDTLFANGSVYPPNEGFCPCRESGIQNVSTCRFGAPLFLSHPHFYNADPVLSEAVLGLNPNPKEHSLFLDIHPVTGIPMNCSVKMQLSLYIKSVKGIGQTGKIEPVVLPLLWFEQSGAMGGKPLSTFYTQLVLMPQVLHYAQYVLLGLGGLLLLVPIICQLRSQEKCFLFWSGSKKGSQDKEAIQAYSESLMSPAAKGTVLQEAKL", "assay": "mouse SR-BI DiI-HDL uptake blockers – ldlA[mSR-BI] cells, fluorescence, cherry pick, dose response (AID 493194);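 also: cellular uptake of fluorescent DiI-labeled HDL measured as cell fluorescence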", "type": "functional, cell-based"}, "[14]": {"biological_target": "T7, Rac GTPase-activating protein 1 (Homo sapiens, UniProt Q9H0H5)", "T7 sequence (Q9H0H5 whole entry)": "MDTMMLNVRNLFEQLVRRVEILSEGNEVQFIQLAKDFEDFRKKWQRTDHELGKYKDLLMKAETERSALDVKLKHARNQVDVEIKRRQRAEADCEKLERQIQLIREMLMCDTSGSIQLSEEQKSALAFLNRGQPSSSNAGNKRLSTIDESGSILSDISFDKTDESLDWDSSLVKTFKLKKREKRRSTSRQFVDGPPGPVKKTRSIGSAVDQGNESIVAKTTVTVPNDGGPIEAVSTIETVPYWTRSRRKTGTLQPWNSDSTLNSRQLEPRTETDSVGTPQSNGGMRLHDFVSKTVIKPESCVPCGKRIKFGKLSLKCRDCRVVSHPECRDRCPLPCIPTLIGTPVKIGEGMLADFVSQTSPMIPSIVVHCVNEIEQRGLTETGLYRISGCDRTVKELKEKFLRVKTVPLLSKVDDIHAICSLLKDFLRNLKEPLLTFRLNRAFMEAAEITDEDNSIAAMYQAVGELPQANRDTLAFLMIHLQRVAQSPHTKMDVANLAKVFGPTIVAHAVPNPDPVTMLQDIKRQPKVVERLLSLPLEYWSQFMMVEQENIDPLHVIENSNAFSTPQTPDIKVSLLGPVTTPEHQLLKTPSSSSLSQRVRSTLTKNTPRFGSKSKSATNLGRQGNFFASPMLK", "assay": "blockers of MgcRacGAP-driven Rac1 GTP hydrolysis – biochemical, ADP Hunter fluorescence, primary and confirmatory, confirmation (AID 624330)", "type": "functional"}, "[15]": {"assay": "viability loss in HeLa cells – cytotoxicity control for MgcRacGAP inhibitor project, dose response (AID 624300)", "type": "functional"}},
  "note": "Activity calls are given as the source filed them.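 For IC50 Mean in this document: Dose-response confirmation assay measuring inhibition of LMPTP enzyme activity by fluorescence intensity read-out.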",
  "data": [
    {"smiles": "CN(C)CCSc1nc(N)c2c3c(sc2n1)CN(C)CC3", "values": [
      {"measurement": "AC50", "setting": "[1]", "value": "28.9 µM (active)"},
      {"measurement": "IC50", "setting": "Bcl-2-like protein 10", "value": "46.2 µM (active)"}
    ]},
    {"smiles": "COc1cc(-c2ccccc2)nc(S)n1", "values": [
      {"measurement": "IC50", "setting": "MDA-MB-435", "value": "> 10 µM (inactive)"},
      {"measurement": "IC50", "setting": "cells", "value": "> 10 µM (inactive)"}
    ]},
    {"smiles": "CC1=C(C(=O)OC(C)C)C(c2ccc(Cl)cc2)n2c(sc(=Cc3ccc(OCC(=O)O)cc3)c2=O)=N1", "note": "(centres undefined)", "values": [
      {"measurement": "IC50", "setting": "[2]", "value": "12.3 µM (active)"},
      {"measurement": "IC50", "setting": "[3]", "value": "1.93 µM (active)"},
      {"measurement": "IC50", "setting": "[4]", "value": "0.967 µM (active)"},
      {"measurement": "IC50", "setting": "[5]", "value": "4.01 µM (active)"},
      {"measurement": "IC50", "setting": "[6]", "value": "5.43 µM (active)"},
      {"measurement": "IC50", "setting": "[7]", "value": "1.68 µM (active)"},
      {"measurement": "IC50", "setting": "[8]", "value": "3.63 µM (active)"},
      {"measurement": "IC50", "setting": "[9]", "value": "0.304 µM (active)"},
      {"measurement": "IC50", "setting": "[10]", "value": "0.391 µM (active)"},
      {"measurement": "IC50", "setting": "[11]", "value": "41.8 µM (active)"},
      {"measurement": "IC50", "setting": "[12]", "value": "6.66 µM (active)"}
    ]},
    {"smiles": "Oc1nc(SCc2ccc(Cl)cc2)nc2c1CCC2", "values": [
      {"measurement": "IC50", "setting": "Neutrophil collagenase", "value": "> 39.8 µM (active)"}
    ]},
    {"smiles": "C=C(CN(C)C)C(=O)c1ccc(OC2OC(COC(C)=O)C(OC(C)=O)C(OC(C)=O)C2OC(C)=O)cc1", "note": "(centres undefined)", "values": [
      {"measurement": "AC50", "setting": "[13]", "value": "6.87 µM (active)"},
      {"measurement": "IC50", "setting": "[14]", "value": "162 µM (active)"},
      {"measurement": "CC50", "setting": "[15]", "value": "100 µM (active)"}
    ]}
  ]
}
